Test results as given in patent US9688722B2, “Substrates and inhibitors of prolyl oligopeptidase and methods of use” (The Board of Regents of the University of Oklahoma, priority 2012, dated 2017).
Values joined by “and” are separate entries in the source; they are usually repeats but may differ in a detail not shown here. Identical values can stand only once. “Also recorded” adds a separate entry of the source.

Key:
[1] = target: DPPIV (Homo sapiens, UniProt P27487); assay: DPPIV inhibition constants (Ki) with Tic-Pro-AFC substrate; type: biochemical
Experimental: (§1) For accurate assessment of kinetic parameters, saturating concentrations of substrate were used. For standard curves, dilutions of AFC (7-amino-4-trifluoromethylcoumarin) were prepared in the same assay buffer and corresponding fluorescence was measured.

[2] = target: T1, POP (Homo sapiens, UniProt P48147); assay: POP inhibition constants (Ki) with Tic-Pro-AFC substrate; type: biochemical
T1 sequence (P48147 1-710): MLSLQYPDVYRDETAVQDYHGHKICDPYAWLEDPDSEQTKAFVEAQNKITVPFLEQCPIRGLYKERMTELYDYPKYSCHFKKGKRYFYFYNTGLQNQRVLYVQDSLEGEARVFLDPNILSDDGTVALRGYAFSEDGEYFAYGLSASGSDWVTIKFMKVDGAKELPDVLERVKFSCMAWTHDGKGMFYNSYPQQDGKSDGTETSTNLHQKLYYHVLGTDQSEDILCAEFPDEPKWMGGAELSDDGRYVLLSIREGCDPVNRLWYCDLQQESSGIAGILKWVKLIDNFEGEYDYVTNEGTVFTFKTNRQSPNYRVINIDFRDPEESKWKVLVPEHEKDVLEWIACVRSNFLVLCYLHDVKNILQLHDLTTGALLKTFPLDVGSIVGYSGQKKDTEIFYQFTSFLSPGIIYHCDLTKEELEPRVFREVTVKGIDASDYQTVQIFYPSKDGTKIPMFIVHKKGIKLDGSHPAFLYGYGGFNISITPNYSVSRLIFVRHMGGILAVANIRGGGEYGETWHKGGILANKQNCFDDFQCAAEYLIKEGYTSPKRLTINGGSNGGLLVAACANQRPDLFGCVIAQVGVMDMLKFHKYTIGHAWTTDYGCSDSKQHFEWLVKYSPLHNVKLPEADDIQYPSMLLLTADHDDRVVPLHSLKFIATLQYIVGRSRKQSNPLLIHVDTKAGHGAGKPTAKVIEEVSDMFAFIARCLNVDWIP
Experimental: as §1

[3] = target: T2, FAP activity on WI-38 fibroblast surfaces (Homo sapiens, UniProt Q12884); assay: Whole cell activity assay, cleavage of C95 on WI-38 fibroblasts; type: cell-based; details: substrate C95, inhibitor 10 μM, 1 μM or 100 nM added at two hours
T2 construct: host or cells: WI-38 fibroblasts
T2 sequence (Q12884 1-760): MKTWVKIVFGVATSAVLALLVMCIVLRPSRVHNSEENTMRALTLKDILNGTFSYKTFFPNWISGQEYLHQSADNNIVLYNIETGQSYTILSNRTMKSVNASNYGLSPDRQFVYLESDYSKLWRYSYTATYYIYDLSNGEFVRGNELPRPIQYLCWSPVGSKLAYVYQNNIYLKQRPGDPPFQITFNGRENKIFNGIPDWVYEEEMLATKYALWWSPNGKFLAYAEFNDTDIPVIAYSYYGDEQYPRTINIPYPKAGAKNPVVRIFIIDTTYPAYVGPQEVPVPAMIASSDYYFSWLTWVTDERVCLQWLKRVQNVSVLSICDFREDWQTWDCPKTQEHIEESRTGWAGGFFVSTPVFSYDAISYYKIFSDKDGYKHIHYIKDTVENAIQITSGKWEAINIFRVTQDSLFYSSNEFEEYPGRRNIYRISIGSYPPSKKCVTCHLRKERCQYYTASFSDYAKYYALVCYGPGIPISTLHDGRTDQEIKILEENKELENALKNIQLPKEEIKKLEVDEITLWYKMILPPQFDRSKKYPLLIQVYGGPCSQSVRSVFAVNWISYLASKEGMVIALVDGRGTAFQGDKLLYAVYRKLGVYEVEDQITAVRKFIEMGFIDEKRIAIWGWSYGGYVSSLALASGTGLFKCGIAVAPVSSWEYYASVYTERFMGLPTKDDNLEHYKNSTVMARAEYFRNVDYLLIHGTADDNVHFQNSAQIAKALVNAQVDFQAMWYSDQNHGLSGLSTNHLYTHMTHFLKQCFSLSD
Experimental: WI-38 fibroblasts were grown on plastic, washed once with HBSS, after which the M83 inhibitor 10 μM in HBSS was added at zero time to one set, and buffer only to the other four sets. The fluorescent substrate C95 was added to all sets of wells and Δ fluorescence/min, reflecting cleavage of C95 over time, was allowed to proceed for two hours when 10 μM, 1 μM or 100 nM of the M83 inhibitor was added to each of three sets of wells.
Whole cell activity assays: Cells were cultured in normal growth media unless otherwise stated. […] Ten μl of fluorescent substrate, C95 were added to give a final concentration of 125 μM, and fluorescence was measured with time at 360/460 nm excitation/emission wavelengths using an FL600 microplate fluorescence reader (Bio-tek Instruments). Fluorescence units were converted to FAP units/100,000 cells by using a conversion factor determined from an APCE standard curve of prolyl-specific endopeptidase activity, such that 1 FAP unit is equivalent to the fluorescence produced by 1 ng of APCE/min. Since FAP and POP cleave the C95 substrate at an equivalent rate, both FAP and POP activities are expressed as FAP units in all figures.

[4] = system: HCT116 human colon cancer xenografts; assay: HCT116 human colon cancer xenografts in immunodeficient mice; type: in vivo; details: 28-day treatment period
[5] = Aqueous solubility; type: physicochemical; details: result in words
Experimental: The specific POP inhibitor, J94 (acetyl-Lys-Leu-Arg-(L)boroPro (Ki<100 nM)); and the substrate, C95 (acetyl-Arg-AEEA-Gly-Pro-AMC), were designed, synthesized and characterized by us as previously reported. […] The inhibitors (J94 and M83) were dissolved in Hanks Balanced Salt Solution (HBSS; Gibco) at 1 mM and stored at −20° C. The substrate (C95) was dissolved in HBSS at 2.5 mM and stored at 4° C. […] Tic-Pro-AFC, a prolyl-specific fluorescent substrate, was supplied by Vantia (Southampton, England).

Chain of DPPIV (P27487 whole entry, species assumed): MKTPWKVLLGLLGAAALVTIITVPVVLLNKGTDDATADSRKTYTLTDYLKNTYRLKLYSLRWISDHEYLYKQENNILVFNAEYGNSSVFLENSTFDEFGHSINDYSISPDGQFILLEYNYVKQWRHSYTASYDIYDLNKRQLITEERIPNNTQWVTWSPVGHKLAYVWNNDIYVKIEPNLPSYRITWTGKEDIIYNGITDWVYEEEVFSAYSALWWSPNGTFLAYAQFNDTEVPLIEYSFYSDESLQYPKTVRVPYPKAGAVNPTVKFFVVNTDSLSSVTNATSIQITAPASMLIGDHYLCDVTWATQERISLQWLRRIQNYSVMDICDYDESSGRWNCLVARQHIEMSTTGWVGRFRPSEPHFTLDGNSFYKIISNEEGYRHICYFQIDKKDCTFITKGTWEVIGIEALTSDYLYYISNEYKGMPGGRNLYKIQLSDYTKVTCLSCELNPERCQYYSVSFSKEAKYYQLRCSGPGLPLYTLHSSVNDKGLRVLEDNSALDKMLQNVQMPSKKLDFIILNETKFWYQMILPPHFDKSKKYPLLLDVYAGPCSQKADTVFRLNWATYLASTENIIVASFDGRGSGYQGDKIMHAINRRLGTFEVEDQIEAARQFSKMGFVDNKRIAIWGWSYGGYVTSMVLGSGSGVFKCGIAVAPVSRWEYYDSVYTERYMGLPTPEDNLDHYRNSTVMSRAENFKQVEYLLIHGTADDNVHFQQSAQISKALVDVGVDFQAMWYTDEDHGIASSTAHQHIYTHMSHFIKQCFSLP

Selectivity Ki (DPPIV) / Ki (APCE-FAP) ([1]; ratio of Ki values): 1076 | inhibition of DPPIV ([1]; result in words): nor was it inhibited | Ki ([1]; substrate Tic-Pro-AFC): 6.13 µM and 6.14 µM | Selectivity Ki (POP) / Ki (APCE/FAP) ([2]; ratio of Ki values): 1.3 | Ki ([2]; substrate Tic-Pro-AFC): 0.0074 µM | solubility in aqueous buffers [5]: soluble in aqueous buffers
Structure (SMILES): CC(=O)N[C@@H](CCCNC(=N)N)C(=O)NCCOCCOCC(=O)N[C@H](C)C(=O)N1CCC[C@H]1B(O)O [Compound M83, acetyl-Arg-AEEA-(D)Ala-(L)boroPro]
inhibition of FAP proteolytic activity on the cell surface [3]: instantly, and essentially totally, inhibited; also recorded: instantly abolished endopeptidase activity | effectiveness on cancer growth relative to J94 [4]: slightly more effective than this
